For orientation: IC50 means the concentration needed to halve the response being measured.

The record followed here is patent US11701359B2, “Exon 18 and/or exon 21 mutant EGFR selective inhibitor” (priority 2017, dated 2023).

Read-outs that look alike come from different tables or passages of the source.

Series [1] is described as follows: Antitumor effect on mouse model subcutaneously transplanted with G719A mutant EGFR-expressing cell line. Particulars: nude, mouse, in vivo, po.
A further series deals with NIH3T3-EGFR G719A cells. The description is as above. The note with it: nude mice.
Series [2] concerns Ba/F3-EGFR L861Q+T790M cells. The experiment in a line: Cell growth inhibitory effect, L861Q+T790M mutant EGFR-expressing Ba/F3 cell line (CellTiter-Glo). The format is cell-based, mouse. Particulars: for IC50: Mus musculus, 72 h, read-out: IC50 (nM) L861Q + T790M. Background: In ATP-based viability assays light output follows the ATP content of the culture.
A further series has as its target T1, human EGFR G719C (Homo sapiens, UniProt P00533, G719C).
T1 construct: expressed in transfected cells; host or cells: Jump-In Grip HEK293 cells (Thermo Fisher Scientific), pJTI R4 DEST CMV pA vector
Briefly: Intracellular EGFR phosphorylation in mutant EGFR forced expression system using HEK293 cells. The format is cell-based. The note with it: HEK293 cells expressing human EGFR G719C, 6 hours; read-out: IC50, phosphorylated EGFR inhibition, G719C.

The next series concerns the target T2, human EGFR L861Q (Homo sapiens, UniProt P00533, L861Q).
T2 construct: expressed in transfected cells; host or cells: Jump-In Grip HEK293 cells (Thermo Fisher Scientific), pJTI R4 DEST CMV pA vector
Described as above. The class given is cell-based. Particulars: HEK293 cells expressing human EGFR L861Q, 6 hours; read-out: IC50, phosphorylated EGFR inhibition, L861Q.

In another series the target is T3, human EGFR G719A (Homo sapiens, UniProt P00533, G719A).
T3 construct: expressed in transfected cells; host or cells: Jump-In Grip HEK293 cells (Thermo Fisher Scientific), pJTI R4 DEST CMV pA vector
Described as above. The class given is cell-based. Particulars: HEK293 cells expressing human EGFR G719A, 6 hours; read-out: IC50, phosphorylated EGFR inhibition, G719A.

The next series deals with Ba/F3-EGFR_WT cells. Briefly: Cell growth inhibitory effect, wild-type EGFR-expressing Ba/F3 cell line (CellTiter-Glo). Particulars: Mus musculus, BaF3, 72 h, read-out: IC50 (nM) WT. The format is cell-based.
A further series deals with T4, human EGFR G719S (Homo sapiens, UniProt P00533, G719S).
T4 construct: expressed in transfected cells; host or cells: Jump-In Grip HEK293 cells (Thermo Fisher Scientific), pJTI R4 DEST CMV pA vector
Briefly: Intracellular EGFR phosphorylation in mutant EGFR forced expression system using HEK293 cells. Particulars: HEK293 cells expressing human EGFR G719S, 6 hours; read-out: IC50, phosphorylated EGFR inhibition, G719S. The format is cell-based.

Series [3] relates to NIH3T3-EGFR G719A+T790M cells. The experiment in a line: in vivo. The note with it: nude mice; for T/C (%): final evaluation day.
The next series in a line: in vivo. The note with it: mouse, in vivo; nude mice, oral once daily, 14 days, G719A+T790M model; read-out: Maximum tolerated dose (weight loss during dosing period less than 20%).
Another series relates to Ba/F3-EGFR G719A cells. The experiment in a line: Cell growth inhibitory effect, G719A mutant EGFR-expressing Ba/F3 cell line (CellTiter-Glo). Particulars: for IC50: Mus musculus, 72 h, read-out: IC50 (nM) G719A. The format is cell-based, mouse.
Series [4] concerns Ba/F3-EGFR G719A+T790M cells. The experiment in a line: Cell growth inhibitory effect, G719A+T790M mutant EGFR-expressing Ba/F3 cell line (CellTiter-Glo). The class given is cell-based, mouse. The note with it: for IC50: Mus musculus, 72 h, read-out: IC50 (nM) G719A + T790M.
In a further series the target is T5, human EGFR L861Q+T790M (Homo sapiens, UniProt P00533, L861Q/T790M).
T5 construct: expressed in transfected cells; host or cells: Jump-In Grip HEK293 cells (Thermo Fisher Scientific), pJTI R4 DEST CMV pA vector
The experiment in a line: Intracellular EGFR phosphorylation in mutant EGFR forced expression system using HEK293 cells. The format is cell-based. The note with it: HEK293 cells expressing human EGFR L861Q+T790M, 6 hours; read-out: IC50, phosphorylated EGFR inhibition, L861Q + T790M.

The target in a further series is T6, human EGFR E709A (Homo sapiens, UniProt P00533, E709A).
T6 construct: expressed in transfected cells; host or cells: Jump-In Grip HEK293 cells (Thermo Fisher Scientific), pJTI R4 DEST CMV pA vector
The series is described as above. The class given is cell-based. The note with it: HEK293 cells expressing human EGFR E709A, 6 hours; read-out: IC50, phosphorylated EGFR inhibition, E709A.

Another series has as its target T7, human EGFR E709K (Homo sapiens, UniProt P00533, E709K).
T7 construct: expressed in transfected cells; host or cells: Jump-In Grip HEK293 cells (Thermo Fisher Scientific), pJTI R4 DEST CMV pA vector
The series is described as above. The format is cell-based. The note with it: HEK293 cells expressing human EGFR E709K, 6 hours; read-out: IC50, phosphorylated EGFR inhibition, E709K.

In the next series the test system is Ba/F3-EGFR L861Q cells. Briefly: Cell growth inhibitory effect, L861Q mutant EGFR-expressing Ba/F3 cell line (CellTiter-Glo). The class given is cell-based, mouse. Particulars: for IC50: Mus musculus, 72 h, read-out: IC50 (nM) L861Q.
The target in another series is T8, human EGFR G719A+T790M (Homo sapiens, UniProt P00533, G719A/T790M).
T8 construct: expressed in transfected cells; host or cells: Jump-In Grip HEK293 cells (Thermo Fisher Scientific), pJTI R4 DEST CMV pA vector
Briefly: Intracellular EGFR phosphorylation in mutant EGFR forced expression system using HEK293 cells. The format is cell-based. Particulars: HEK293 cells expressing human EGFR G719A+T790M, 6 hours; read-out: IC50, phosphorylated EGFR inhibition, G719A + T790M.

T4 sequence (P00533 25-1210 G719S): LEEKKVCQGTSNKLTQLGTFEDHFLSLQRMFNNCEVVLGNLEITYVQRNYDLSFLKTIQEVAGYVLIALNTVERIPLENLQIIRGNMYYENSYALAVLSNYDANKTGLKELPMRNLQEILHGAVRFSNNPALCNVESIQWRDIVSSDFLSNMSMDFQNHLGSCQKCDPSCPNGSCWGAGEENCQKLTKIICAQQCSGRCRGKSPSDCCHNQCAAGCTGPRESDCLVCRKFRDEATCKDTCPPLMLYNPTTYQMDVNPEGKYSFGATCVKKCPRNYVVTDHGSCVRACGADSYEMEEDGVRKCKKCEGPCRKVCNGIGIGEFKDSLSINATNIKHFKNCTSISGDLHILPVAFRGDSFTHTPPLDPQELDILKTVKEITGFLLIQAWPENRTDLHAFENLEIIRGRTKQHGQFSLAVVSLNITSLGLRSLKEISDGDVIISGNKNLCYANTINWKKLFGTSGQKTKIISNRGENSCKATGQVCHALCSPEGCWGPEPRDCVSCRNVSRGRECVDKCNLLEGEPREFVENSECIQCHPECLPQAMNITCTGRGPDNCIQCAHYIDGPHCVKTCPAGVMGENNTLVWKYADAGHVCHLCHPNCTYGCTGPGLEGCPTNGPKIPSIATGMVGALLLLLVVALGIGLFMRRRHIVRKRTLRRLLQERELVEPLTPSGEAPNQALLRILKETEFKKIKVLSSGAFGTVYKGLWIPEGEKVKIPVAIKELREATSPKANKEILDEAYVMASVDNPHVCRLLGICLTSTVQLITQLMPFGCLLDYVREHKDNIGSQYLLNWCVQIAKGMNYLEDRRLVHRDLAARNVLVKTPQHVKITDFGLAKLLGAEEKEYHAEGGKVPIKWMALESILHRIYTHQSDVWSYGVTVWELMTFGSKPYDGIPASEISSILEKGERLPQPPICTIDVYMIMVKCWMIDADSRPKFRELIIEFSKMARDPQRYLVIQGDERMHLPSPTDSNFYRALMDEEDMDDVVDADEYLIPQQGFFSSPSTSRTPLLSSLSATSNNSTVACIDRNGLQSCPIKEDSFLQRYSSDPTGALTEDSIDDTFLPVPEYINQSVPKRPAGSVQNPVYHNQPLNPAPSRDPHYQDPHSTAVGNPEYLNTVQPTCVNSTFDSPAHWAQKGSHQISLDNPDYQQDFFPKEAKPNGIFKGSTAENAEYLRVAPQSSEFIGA
T5 sequence (P00533 25-1210 T790M/L861Q): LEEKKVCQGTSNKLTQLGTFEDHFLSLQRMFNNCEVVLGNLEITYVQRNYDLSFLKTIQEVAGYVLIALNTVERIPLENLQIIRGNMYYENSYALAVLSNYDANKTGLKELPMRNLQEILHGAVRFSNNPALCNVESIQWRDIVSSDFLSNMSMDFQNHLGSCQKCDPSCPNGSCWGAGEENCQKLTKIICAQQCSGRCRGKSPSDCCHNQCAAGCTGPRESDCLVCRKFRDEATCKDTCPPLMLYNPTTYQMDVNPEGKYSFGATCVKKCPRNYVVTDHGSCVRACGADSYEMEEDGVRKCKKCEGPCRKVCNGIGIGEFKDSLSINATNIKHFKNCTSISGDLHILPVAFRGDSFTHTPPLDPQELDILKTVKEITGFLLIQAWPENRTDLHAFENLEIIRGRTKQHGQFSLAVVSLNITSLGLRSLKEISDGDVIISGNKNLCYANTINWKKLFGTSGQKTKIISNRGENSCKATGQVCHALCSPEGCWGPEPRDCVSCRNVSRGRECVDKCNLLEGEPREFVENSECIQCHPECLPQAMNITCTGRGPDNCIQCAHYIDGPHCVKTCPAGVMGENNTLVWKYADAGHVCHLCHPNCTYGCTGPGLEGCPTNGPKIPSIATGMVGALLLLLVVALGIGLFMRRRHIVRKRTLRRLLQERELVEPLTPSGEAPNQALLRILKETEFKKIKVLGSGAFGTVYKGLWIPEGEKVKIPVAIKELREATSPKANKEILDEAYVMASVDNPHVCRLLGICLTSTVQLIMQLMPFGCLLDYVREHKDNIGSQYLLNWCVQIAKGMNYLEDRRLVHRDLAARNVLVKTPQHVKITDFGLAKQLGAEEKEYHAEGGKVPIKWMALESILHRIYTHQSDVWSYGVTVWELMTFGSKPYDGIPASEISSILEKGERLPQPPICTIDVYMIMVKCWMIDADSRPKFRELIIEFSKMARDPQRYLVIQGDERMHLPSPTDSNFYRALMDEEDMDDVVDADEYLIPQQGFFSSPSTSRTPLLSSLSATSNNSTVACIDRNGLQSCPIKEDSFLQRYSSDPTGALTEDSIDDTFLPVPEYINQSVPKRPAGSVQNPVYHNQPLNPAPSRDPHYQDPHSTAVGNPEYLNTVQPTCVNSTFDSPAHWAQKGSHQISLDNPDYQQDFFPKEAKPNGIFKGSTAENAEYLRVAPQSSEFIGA
T6 sequence (P00533 25-1210 E709A): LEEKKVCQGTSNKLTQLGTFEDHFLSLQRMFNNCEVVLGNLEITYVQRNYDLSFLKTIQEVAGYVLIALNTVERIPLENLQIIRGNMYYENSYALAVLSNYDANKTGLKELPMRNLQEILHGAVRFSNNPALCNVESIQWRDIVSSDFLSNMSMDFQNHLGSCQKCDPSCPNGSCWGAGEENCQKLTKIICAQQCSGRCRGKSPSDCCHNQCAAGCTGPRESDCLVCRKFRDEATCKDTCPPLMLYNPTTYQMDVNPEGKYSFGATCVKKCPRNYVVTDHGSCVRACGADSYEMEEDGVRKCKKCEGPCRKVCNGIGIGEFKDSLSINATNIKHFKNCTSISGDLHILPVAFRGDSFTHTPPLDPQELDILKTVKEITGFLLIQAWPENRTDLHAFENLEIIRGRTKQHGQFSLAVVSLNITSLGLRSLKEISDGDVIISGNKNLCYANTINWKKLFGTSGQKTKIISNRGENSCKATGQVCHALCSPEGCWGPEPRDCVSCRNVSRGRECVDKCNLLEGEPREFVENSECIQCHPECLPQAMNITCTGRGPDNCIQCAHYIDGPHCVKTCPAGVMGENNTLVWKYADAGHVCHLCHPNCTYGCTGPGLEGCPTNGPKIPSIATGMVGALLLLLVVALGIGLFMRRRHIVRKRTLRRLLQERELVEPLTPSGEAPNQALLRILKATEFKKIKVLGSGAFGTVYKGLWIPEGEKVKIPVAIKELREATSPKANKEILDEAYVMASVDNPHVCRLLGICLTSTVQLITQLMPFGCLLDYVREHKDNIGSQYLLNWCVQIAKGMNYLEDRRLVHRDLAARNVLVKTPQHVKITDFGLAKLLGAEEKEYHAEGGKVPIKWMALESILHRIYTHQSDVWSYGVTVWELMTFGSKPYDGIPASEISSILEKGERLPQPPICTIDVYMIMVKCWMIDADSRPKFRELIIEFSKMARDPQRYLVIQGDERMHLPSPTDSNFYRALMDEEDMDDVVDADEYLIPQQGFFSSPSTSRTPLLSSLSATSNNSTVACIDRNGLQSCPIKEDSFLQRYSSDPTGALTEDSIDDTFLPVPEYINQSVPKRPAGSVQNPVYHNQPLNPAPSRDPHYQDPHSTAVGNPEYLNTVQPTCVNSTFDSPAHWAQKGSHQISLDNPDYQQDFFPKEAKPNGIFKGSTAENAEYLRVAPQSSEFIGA
T7 sequence (P00533 25-1210 E709K): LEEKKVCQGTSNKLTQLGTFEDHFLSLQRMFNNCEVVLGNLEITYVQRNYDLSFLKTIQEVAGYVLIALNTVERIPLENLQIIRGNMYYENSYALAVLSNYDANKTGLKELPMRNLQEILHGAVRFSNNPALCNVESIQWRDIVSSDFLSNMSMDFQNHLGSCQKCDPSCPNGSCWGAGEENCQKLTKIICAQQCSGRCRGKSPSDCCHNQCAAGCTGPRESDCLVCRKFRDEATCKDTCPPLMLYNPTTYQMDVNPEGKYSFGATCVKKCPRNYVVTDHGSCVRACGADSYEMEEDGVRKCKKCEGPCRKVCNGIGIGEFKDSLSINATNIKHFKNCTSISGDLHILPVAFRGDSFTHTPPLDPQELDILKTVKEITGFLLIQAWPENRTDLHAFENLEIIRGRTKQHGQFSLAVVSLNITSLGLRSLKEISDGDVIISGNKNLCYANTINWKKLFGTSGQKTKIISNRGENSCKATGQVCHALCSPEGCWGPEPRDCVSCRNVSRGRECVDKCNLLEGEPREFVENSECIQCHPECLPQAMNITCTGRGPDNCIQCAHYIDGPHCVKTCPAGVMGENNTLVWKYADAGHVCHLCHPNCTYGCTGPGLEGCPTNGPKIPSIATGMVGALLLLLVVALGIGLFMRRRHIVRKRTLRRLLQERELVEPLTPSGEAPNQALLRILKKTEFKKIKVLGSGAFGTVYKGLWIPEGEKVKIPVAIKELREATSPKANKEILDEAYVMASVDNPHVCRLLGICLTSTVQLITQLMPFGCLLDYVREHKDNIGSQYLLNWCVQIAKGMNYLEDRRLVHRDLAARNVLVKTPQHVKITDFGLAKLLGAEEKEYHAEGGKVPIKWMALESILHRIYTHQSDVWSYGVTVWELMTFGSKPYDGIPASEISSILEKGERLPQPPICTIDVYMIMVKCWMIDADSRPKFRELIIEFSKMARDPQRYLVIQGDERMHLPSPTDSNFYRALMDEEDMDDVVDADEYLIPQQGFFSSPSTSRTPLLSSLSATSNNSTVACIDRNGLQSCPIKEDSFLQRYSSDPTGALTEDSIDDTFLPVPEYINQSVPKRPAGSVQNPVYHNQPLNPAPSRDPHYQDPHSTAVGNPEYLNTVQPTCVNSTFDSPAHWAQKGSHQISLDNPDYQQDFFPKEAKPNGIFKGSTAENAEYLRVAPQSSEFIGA

In the case of `C=CC(=O)N[C@H]1C=C(C)c2c(-c3cnc4ccccc4c3)c3c(N)ncnc3n2C1` [Compound A, (S)-N-(4-amino-6-methyl-5-(quinolin-3-yl)-8,9-dihydropyrimido[5,4-b]indolizin-8-yl)acrylamide], the MTD at 14 days (in [1]; in “in vivo”) was 200 mg/kg/day in each case. Moreover, the “Symptoms (weight loss, abnormal feces, abnormal skin)” value is recorded as “did not show symptoms” in the series on NIH3T3-EGFR G719A cells (NIH3T3-EGFR G719A model, oral once daily 14 days, FIG. 2) and “without symptoms such as serious weight loss” in [3] (NIH3T3-EGFR G719A+T790M model, oral once daily, FIG. 4). The “Antitumor effect (tumor volume)” value was “remarkable antitumor effect” in the series with NIH3T3-EGFR G719A cells (NIH3T3-EGFR G719A subcutaneous, oral once daily 14 days, 50, 100, 200 mg/kg/day, FIG. 1) and “significant antitumor effect” in series [3] (NIH3T3-EGFR G719A+T790M subcutaneous, oral once daily, 50, 100, 200 mg/kg/day, FIG. 3). Besides, in series [2] (IC50 (WT)/IC50 (L861Q+T790M), Ba/F3 cells), the “IC50 Ratio WT/L861Q + T790M” value came to 15.9. Besides, the IC50 was 37.5 nM in series [2] (Ba/F3 cells with human EGFR L861Q+T790M, no EGF, 3 days); 9300 nM at human EGFR G719C; 40500 nM at human EGFR L861Q; 20500 nM at human EGFR G719A; 597 nM in the series on Ba/F3-EGFR_WT cells (Ba/F3 cells with human wild-type EGFR, 50 ng/mL EGF, 3 days); 22700 nM at human EGFR G719S. Besides, the IC50 with Ba/F3-EGFR G719A cells (Ba/F3 cells with human EGFR G719A, no EGF, 3 days) turned out to be 9 nM; in series [4] (Ba/F3 cells with human EGFR G719A+T790M, no EGF, 3 days), 15.8 nM; on human EGFR L861Q+T790M it was 81800 nM; on human EGFR E709A it was 103000 nM; at human EGFR E709K, 86000 nM; in the series with Ba/F3-EGFR L861Q cells (Ba/F3 cells with human EGFR L861Q, no EGF, 3 days) it was 19 nM. The IC50 on human EGFR G719A+T790M came out at 31300 nM. Also, the “T/C (%)” value in series [3] (50 mg/kg, oral once daily) was 47.7%; in series [3] (100 mg/kg, oral once daily), 36.4%; in series [3] (200 mg/kg, oral once daily), 28.0%. In the series with Ba/F3-EGFR G719A cells (IC50 (WT)/IC50 (G719A), Ba/F3 cells), the “IC50 Ratio WT/G719A” value amounted to 66.4. Besides, the “IC50 Ratio WT/G719A + T790M” value in series [4] (IC50 (WT)/IC50 (G719A+T790M), Ba/F3 cells) was found to be 37.9. For the same molecule, the “IC50 Ratio WT/L861Q” value in the series with Ba/F3-EGFR L861Q cells (IC50 (WT)/IC50 (L861Q), Ba/F3 cells) was 31.4.

With `C=CC(=O)Nc1cc(Nc2nccc(-c3cn(C)c4ccccc34)n2)c(OC)cc1N(C)CCN(C)C` [Osimertinib, osimertinib, reference compound], the concentration for half-maximal inhibition (IC50) in [2] (Ba/F3 EGFR) was found to be 36.4 nM; in the series with Ba/F3-EGFR_WT cells, 379 nM; in the series with Ba/F3-EGFR G719A cells (Ba/F3 EGFR), 209 nM; in series [4] (Ba/F3 EGFR), 89.4 nM; with Ba/F3-EGFR L861Q cells (Ba/F3 EGFR), 47 nM.
